According to patent publication US20260097091A1, “ADMINISTRATION OF GLUTATHIONE TRISULFIDE TO AMELIORATE PERIPHERAL NEUROPATHY” (The General Hospital Corporation, priority 2022, published 2026):

Key:
primary DRG neurons = primary DRG neurons exposed to paclitaxel: Sholl analysis and axonal mitochondria (NF200, MitoTracker); format: cell-based, mice
Protocol: Primary DRG neurons were prepared from 8 to 10-week old mice as described previously. Briefly, lumber DRG (L1 to L6) were isolated from mice and centrifuged at 176×g (1000 rpm) for 3 minutes. After aspirating the solution, DRG were incubated with Dispase-II Solution (Sigma-Aldrich, Cat No. SCM133) and collagenase type II (Worthington, Cat No. LS004176) for 70 minutes and with 0.25% trypsin for 5 minutes. Subsequently triturated by frame polished glass pipet, neurons were seeded on a 12-well plate with 15 mm coverslip. Cells were incubated in Neurobasal A-medium with 2% B27 supplement (Gibco, Cat No. 10889038), 1% penicillin/streptomycin, 1% Glutamax (Gibco, Cat No. 35050061), and nerve growth factor (Sigma Aldrich, Cat No. N6009) for 24 hours. After 24 hours, they were exposed to 100 nM of paclitaxel with or without 500 nM of GSSSG or PTNSSS for one hour and 50 nM of MitoTracker (Invitrogen, Cat No. M22426) for 30 minutes. After fixing by 4% paraformaldehyde for 10 minutes at room temperature, cells were immersed in 0.2% Triton X-100 in PBS for 7 minutes and washed by PBS. They were incubated with anti-NF200 antibody (1:400, mouse, Sigma-Aldrich, Cat No. N0142) overnight at 4° C. and with the secondary antibody (1:1000, donkey anti-mouse, Abcam, Cat No. ab150105) for one hour at room temperature. After being covered with fluoroshield mounting medium with DAPI (Sigma-Aldrich, Cat No. F6057), 9-10 cells per group (3 mice per group) were imaged on confocal microscopy (ZEISS LSM 800, Carl Zeiss, Thornwood, NY) using a 63× oil immersion objectives lens with 1,024×1,024 pixels image size.
Effects of PTNSSS and GSSSG on axonal integrity were examined in cultured murine primary DRG neurons incubated with paclitaxel. […] Morphology of neurons, the number, length, and branching of neurites, was analyzed by Sholl analysis implemented in ImageJ [30]. Sholl analysis draws equally spaced circles from the soma and counts the number of intersections between neurites and circles to quantify neuronal morphology (FIG. 8C).

[1] = tested on: intraepidermal nerve fibers of hind paws; assay: density of intraepidermal nerve fibers in hind paw skin (immunohistochemistry); format: in vivo, mice (C57BL/6J); settings: for density of intraepidermal nerve fibers: paclitaxel alone
Protocol: Paclitaxel (Sigma-Aldrich) was dissolved with ethanol and cremophor (1:1) and diluted with normal saline (1:4). Peripheral neuropathy was induced in mice by intraperitoneal (i.p.) administration of 4 mg/kg paclitaxel every other day for a total of 4 injections (cumulative dose of 16 mg/kg), according to a previously described protocol. A stable, crystallized form of GSSSG was produced and provided by Kyowa Hakko Bio CO., LTD. GSSSG was pulverized and mixed in 0.5% methylcellulose. To evaluate the therapeutic effects of GSSSG in a model of PIPN, mice were randomly divided into three groups of 6. Mice were treated with: 1) paclitaxel alone; 2) paclitaxel and GSSSG; 3) or vehicle alone (control). Mice in groups 1 and 2 received paclitaxel as described above, while mice in the control group received the same volume of vehicle. The first dose of GSSSG was given within 1 hour after the first PTX injection. Treatment was administered as oral gavage for 28 days with GSSSG at 50 mg/kg/day (group 2) or 0.5% methylcellulose (groups 1 and 3). The dose of GSSSG was determined based on pilot studies. To determine the effect of GSSSG on the development of PIPN, behavioral tests to assess allodynia and hyperalgesia were conducted on all mice on days-1 (baseline), 7, 14, 21, and 28 after paclitaxel administration. Behavioral tests were performed by an investigator who was blinded to the treatment groups, as described in the next section. Density of intraepidermal nerve fiber (fibers/mm) of hind paws was calculated to evaluate peripheral nerve fiber damage by paclitaxel. Mice were deeply anesthetized with Isoflurane (4%) and euthanized by exsanguination on week 1 or week 4 after paclitaxel treatment for tissue harvest. […] Ten images per mouse (6 mice per group) were taken by fluorescence microscopy (Nikon Eclipse 80i, Nikon Instruments, Inc., Melville, NY), and four out of ten images were randomly selected. The density (fibers/mm basement membrane) was calculated as the number of intraepidermal nerve fiber divided by the length of basement membrane in accordance with the guideline.

primary cortical neurons = assay: Dihydroethidium (DHE) superoxide assay in primary cortical neurons; format: cell-based, mice
Protocol: Primary cortical neurons were prepared from the cortex of mice on embryonic day 15, as described previously. In brief, the embryo's cortex was isolated in Hanks' balanced salt solution and centrifuged at 176×g (1000 rpm) for 3 minutes. After aspirating the solution, cells were incubated with 0.25% trypsin for 15 minutes and seeded 20,000/well in a 96-well plate coated with the poly-D-lysin (Gibco, Cat No. A3890401). They were incubated in Neurobasal medium (Gibco, Cat No. 21103049) with 2% B27 supplement (Gibco, Cat No. 10889038), 1% penicillin/streptomycin, and 1% Glutamax (Gibco, Cat No. 35050061) until day 11 when they were used for experiments.
To examine whether GSSSG reduces ROS generated by paclitaxel, we conducted Dihydroethidium (DHE) assay (Abcam, Cat No. ab236206) that is sensitive to superoxide. The experiment was done according to protocol provided by the manufacturer. Briefly, primary cortical neurons were incubated in DHE reagent with or without 10 and 30 μM of GSSSG for 30 minutes. After incubating, 100 nM of paclitaxel was administered, and cells were incubated for one hour. Fluorescence of DHE was measured at 490 nm of excitation and 585 nm of emission wavelength.

[2] = 500 nM GSSSG with 100 nM paclitaxel for one hour, vs paclitaxel
[3] = 100 nM paclitaxel for one hour, vs control

number of mitochondria in axons (primary DRG neurons; 100 nM paclitaxel for one hour) | elongation of axons (Sholl analysis) (primary DRG neurons; [3]) | density of intraepidermal nerve fibers ([1]; 1 week after starting paclitaxel) | intracellular levels of superoxide (DHE) (primary cortical neurons; [3]) | Compound | axonal elongation (Sholl analysis) (primary DRG neurons; 500 nM GSSSG with 100 nM paclitaxel for one hour, >160 μm from soma, vs paclitaxel) | number of mitochondria in axons (primary DRG neurons; [2]) | ratio of the total mitochondria length to axonal length (primary DRG neurons; [2]) | paclitaxel-induced loss of intraepidermal nerve fibers ([1]; daily oral 50 mg/kg GSSSG in paclitaxel-treated mice, 4 weeks after starting paclitaxel) | paclitaxel-induced increase of intracellular superoxide (DHE) (primary cortical neurons; 10 μM GSSSG co-incubation with 100 nM paclitaxel, vs paclitaxel) | ratio of the total mitochondria length to axonal length (primary DRG neurons; 100 nM paclitaxel for one hour) | density of intraepidermal nerve fibers ([1]; 4 weeks after starting paclitaxel)
– | – | – | – | N[C@@H](CCC(=O)N[C@@H](CSSSC[C@H](NC(=O)CC[C@H](N)C(=O)O)C(=O)NCC(=O)O)C(=O)NCC(=O)O)C(=O)O [GSSSG, glutathione trisulfide] | restored axonal elongation | prevented paclitaxel-induced decrease | prevented paclitaxel-induced decrease of the ratio of the total mitochondria length to axonal length | prevented paclitaxel-induced loss of intraepidermal nerve fibers | prevented the paclitaxel-induced increase of intracellular superoxide | – | –
decreased | hampered elongation of axons | not at 1 week | increased | CC(=O)O[C@H]1C(=O)[C@@]2(C)[C@H]([C@H](OC(=O)c3ccccc3)[C@]3(O)C[C@H](OC(=O)[C@H](O)[C@@H](NC(=O)c4ccccc4)c4ccccc4)C(C)=C1C3(C)C)[C@]1(OC(C)=O)CO[C@@H]1C[C@@H]2O [paclitaxel, Paclitaxel, reference compound] | – | – | – | – | – | decreased the ratio of the total mitochondria length to axonal length | decreased the density of intraepidermal nerve fibers at 4 weeks
